Results: patent US20080261895A1 (Wyeth, priority 2006, published 2008)
“And” between values parts separate entries of the source, which are not always exact repeats. Equal entries are not always repeated.

Legend:
[1] = Metabolites of DVS observed by LC/MS in dog plasma, urine and feces; assay type: in vivo, beagle dogs; conditions: P: plasma, U: urine, F: feces
Experimental: An Agilent Model 1100 HPLC system (Agilent Technologies, Wilmington, Del.) including an autosampler and diode array UV detector was used for LC/MS analysis. The UV detector was set to monitor 200 to 400 nm. Separations were accomplished on a 5 micron Phenomenex Luna C18(2) column, 150×2 mm (Phenomenex). The column temperature was 25° C. For selected LC/MS analyses, radiochromatograms were acquired using a β-RAM model 3 radioactivity flow detector (IN/US Systems Inc., Tampa, Fla.) equipped with a solid scintillation flow cell.
The mass spectrometers used for metabolite characterization were a Micromass Q-TOF-2 quadrupole time-of-flight hybrid mass spectrometer (Micromass, Inc., Beverly, Mass.) and a Finnigan LCQ Deca ion trap mass spectrometer (ThermoFinnigan, San Jose, Calif.). The mass spectrometer was equipped with an electrospray ionization (ESI) interface and operated in the positive ionization mode.

[2] = Urinary excretion and metabolite profile by radiochromatography, rats; assay type: in vivo, Sprague Dawley rats; conditions: for Compounds Detected by Radiochromatography in urine (Mean ± S.D., n = 3), percent of total peaks: single oral 20 mg/kg
Experimental: (§1) Urine and feces were collected separately on dry ice from three animals per sex. Collections were from 0-8 and 8-24 hours for male rats and 0-8 hours for female rats. Fecal samples were homogenized in approximately five volumes (v/w) of water. Aliquots of approximately 0.4 grams of the homogenate were placed into combusto-cones, weighed and allowed to air dry. These samples were then oxidized. The remaining urine samples and fecal homogenates were stored at −70° C. until metabolite analysis.
All urine samples were analyzed for metabolite profiles. Aliquots of 0.5 mL urine were centrifuged at 3500 rpm and 4° C. in a Sorvall Super 21 centrifuge for 10 minutes. The supernatant was transferred to a fresh tube and analyzed for radioactivity content and by HPLC for profiling. Selected samples were also analyzed by LC/MS to characterize the radioactive peaks.
(§2) Chromatographic analyses were performed with a Waters Alliance model 2690 HPLC system (Waters Corp., Milford, Mass.). It was equipped with a built-in autosampler and was in-line with a model 2487 tunable UV detector, set to monitor 225 nm, and a FloOne β Model 525 radioactivity flow detector (Perkin Elmer) with a 250 μL LQTR flow cell. The flow rate of Ultima Flow M scintillation fluid was 1 mL/min, providing a mixing ratio of scintillation cocktail to mobile phase of 5:1. Separation of the metabolite peaks was accomplished on a Phenomenex Luna C18(2) column, 150×2.0 mm, 5 micron (Phenomenex, Torrance, Calif.), using a linear gradient of two mobile phases, A and B. Mobile phase A was 10 mM ammonium acetate, pH 6.0, and mobile phase B was acetonitrile. The flow rate was 0.2 mL/min.

[3] = Plasma metabolite profile by radiochromatography, dogs; assay type: in vivo, beagle dogs; conditions: single oral 30 mg/kg DVS
Experimental: Plasma samples collected at 1 and 4 hours post-dose were analyzed for metabolite profiles. Aliquots of 1 mL plasma were mixed with an equal volume of acetonitrile, placed on ice for at least 10 minutes, and then centrifuged at 14000 rpm in an Eppendorf Model 5415C centrifuge for 10 minutes. The supernatant fluid was transferred to a clean tube. The supernatant was analyzed for radioactivity. The supernatant was concentrated under a stream of nitrogen in a Turbo Vap (Zymark, Hopinkton, Mass.) to remove the acetonitrile. An aliquot of the aqueous residue was analyzed by HPLC for profiling. Selected samples were also analyzed by LC/MS to characterize the radioactive peaks.
Chromatographic analyses were performed with a Waters Alliance model 2690 HPLC system (Waters Corp., Milford, Mass.). It was equipped with a built-in autosampler and was in-line with a model 2487 tunable UV detector, set to monitor 225 nm, and a FloOne β Model 515 radioactivity flow detector (Perkin Elmer) with a 250 μL LQTR flow cell. The flow rate of Ultima Flow M scintillation fluid was 3 mL/min, providing a mixing ratio of scintillation cocktail to mobile phase of 3:1. […]

[4] = Plasma metabolite profile by radiochromatography, rats; assay type: in vivo, Sprague Dawley rats; conditions: single oral 20 mg/kg DVS
Experimental: Plasma samples collected at 1, 4 and 8 hours post-dose were analyzed for metabolite profiles. Aliquots of 0.5 mL plasma were mixed with an equal volume of acetonitrile, placed on ice for approximately 10 minutes, and then centrifuged at 3500 rpm and 4° C. in a Sorvall Super 21 centrifuge for 10 minutes. The supernatant fluid was transferred to a clean tube. The supernatant was analyzed for radioactivity. The supernatant was concentrated under a stream of nitrogen in a Turbo Vap (Zymark, Hopinkton, Mass.) to remove the acetonitrile. An aliquot of the aqueous residue was analyzed by HPLC for metabolite profiling. Selected samples were also analyzed by LC/MS to characterize the radioactive peaks.
as §2

[5] = Metabolites of DVS observed by LC/MS in rat plasma, urine and feces; assay type: in vivo, Sprague Dawley rats; conditions: P: plasma, U: urine, F: feces
Experimental: An Agilent Model 1100 HPLC system (Agilent Technologies, Wilmington, Del.) including an autosampler and diode array UV detector was used for LC/MS analysis. The UV detector was set to monitor 200 to 400 nm. Separations were accomplished on a 5 micron Phenomenex Luna C18(2) column, 150×2 mm (Phenomenex). The column temperature was 25° C. The mobile phases and gradient program were as follows.
The mass spectrometer used for metabolite characterization was a Micromass Q-TOF-2 quadrupole time-of-flight hybrid mass spectrometer (Micromass, Inc., Beverly, Mass.). The mass spectrometer was equipped with an electrospray ionization (ESI) interface and operated in the positive ionization mode.

[6] = Urinary excretion and metabolite profile by radiochromatography, dogs; assay type: in vivo, beagle dogs; conditions: urine 8-24 hours post-dose, single oral 30 mg/kg, mean of 2 analyses, 30 mg/kg
Experimental: (§3) For each dog, urine and feces were collected separately, with urine collected on dry ice and feces collected at room temperature. Collections were from 0-8 and 8-24 hours for urine and 0-24 hours for feces. Urine and fecal samples were shipped on dry ice to Wyeth Research, Biotransformation Division (Collegeville, Pa.) for analysis. Fecal samples were homogenized in approximately five volumes (v/w) of water. Aliquots of approximately 0.2 grams of the homogenate were placed into combusto-cones, weighed and allowed to air dry. These samples were then oxidized and radioactivity content determined. The remaining urine samples and fecal homogenates were stored at −70° C. until metabolite analysis. Blood samples and fecal homogenates were oxidized in a Model 307 Tri-Carb sample oxidizer, using Carbosorb® E (6 mL) as trapping agent and PermaFluor® E^+ (10 mL) as scintillant. The background reading (average of control blood or fecal samples) was subtracted from each sample reading. Aliquots of urine and plasma were analyzed directly following the addition of 10 mL of Ultima Gold™ scintillation fluid.
Urine samples collected between 8 and 24 hours post-dose were analyzed for metabolite profiles. Aliquots of urine were centrifuged at 14000 rpm in an Eppendorf Model 5415C centrifuge for 10 minutes. The supernatant was transferred to a fresh tube and analyzed for radioactivity content and by HPLC for metabolite profiling. Selected samples were also analyzed by LC/MS to characterize the radioactive peaks.
as §2, with “β Model 515 radioactivity flow” for “β Model 525 radioactivity flow”, “fluid was 3 mL/min, providing” for “fluid was 1 mL/min, providing”, “phase of 3:1. Separation of” for “phase of 5:1. Separation of”, “C18(2) column, 250×4.6 mm, 5” for “C18(2) column, 150×2.0 mm, 5”, “acetate, pH 5.5, and mobile” for “acetate, pH 6.0, and mobile”, “rate was 1 mL/min.” for “rate was 0.2 mL/min.”

[7] = Fecal excretion and metabolite profile by radiochromatography, dogs; assay type: in vivo, beagle dogs; conditions: single oral 30 mg/kg; for Compounds Detected by Radiochromatography in feces, percent of total peaks, individual dogs: feces 0-24 hours post dose (dog 7 until 48 hours), average of 2 analyses; for Compounds Detected by Radiochromatography in feces, percent of total peaks, Mean ± S.D.: feces 0-24 hours post dose
Experimental: as §3
Fecal homogenates collected up to 24 hours post-dose were analyzed for metabolite profiles. Aliquots of approximately 2 grams of fecal homogenate were transferred to a fresh tube, an equal volume of acetonitrile (v/w) was added, and the tube vortexed. Samples were then centrifuged at 14000 rpm in an Eppendorf Model 5415C centrifuge for 10 minutes. The supernatant was transferred to a clean tube. The residue was re-suspended with 1 mL acetonitrile and centrifuged as described above. The resulting supernatant was combined with the original supernatant and analyzed for radioactivity. The supernatants were then concentrated under a stream of nitrogen in a Turbo Vap to remove the acetonitrile. An aliquot of the aqueous residue was analyzed by HPLC for profiling. Selected samples were also analyzed by LC/MS to characterize the radioactive peaks.
as §2, with “β Model 515 radioactivity flow” for “β Model 525 radioactivity flow”, “fluid was 3 mL/min, providing” for “fluid was 1 mL/min, providing”, “phase of 3:1. Separation of” for “phase of 5:1. Separation of”, “C18(2) column, 250×4.6 mm, 5” for “C18(2) column, 150×2.0 mm, 5”, “acetate, pH 5.5, and mobile” for “acetate, pH 6.0, and mobile”, “rate was 1 mL/min.” for “rate was 0.2 mL/min.”

[8] = Fecal excretion and metabolite profile by radiochromatography, rats; assay type: in vivo, Sprague Dawley rats; conditions: male rats, feces 8-24 hours post-dose, single oral 20 mg/kg, 20 mg/kg
Experimental: as §1
Fecal homogenates collected from male rats between 8 and 24 hours post-dose were analyzed for metabolite profiles. Aliquots of approximately 1 gram of fecal homogenate were centrifuged at 3500 rpm and 4° C. in a Sorvall Super 21 centrifuge for 10 minutes. The supernatant was transferred to a clean tube. The residue was re-suspended with 1 mL of water:acetonitrile (1:1, v:v) and centrifuged as described above. The resulting supernatant was combined with the original supernatant and the residue re-suspended with 1 mL of acetonitrile. The suspension was centrifuged as described above, and the supernatants were combined and analyzed for radioactivity. The supernatants were then concentrated under a stream of nitrogen in a Turbo Vap to remove the acetonitrile. An aliquot of the aqueous residue was analyzed by HPLC for profiling. Selected samples were also analyzed by LC/MS to characterize the radioactive peaks.
as §2

| Compound | Matrix (metabolite observed by LC/MS) [1] | Matrix (metabolite observed by LC/MS) [5] | Compounds Detected by Radiochromatography in urine, percent of total peaks, individual dogs [6] | Compounds Detected by Radiochromatography in feces, percent of total peaks, individual dogs [7] | Compounds Detected by Radiochromatography in feces, percent of total peaks, Mean ± S.D. [7] | Compounds Detected by Radiochromatography in feces, percent of total peaks, Mean ± S.D. [8] | also measured |
| --- | --- | --- | --- | --- | --- | --- | --- |
| CN(C)CC(O)(c1ccc(O)cc1)C1(O)CCCCC1 (centres unmarked) [Metabolite M9, Hydroxy DV] | U, F | – | – | – | – | – | – |
| CN(C)CC(c1ccc(O[C@@H]2O[C@H](C(=O)O)[C@@H](O)[C@H](O)[C@H]2O)cc1)C1(O)CCCCC1 (some centres unmarked) [Metabolite M7, O-desmethylvenlafaxine O-glucuronide] | P, U, F | P, U, F | 84.1% and 83.5% and 83.9% and 86.8% | – | – | – | % of the radioactivity detected in urine ([2]; all urine samples at each time point): approximately 75%; Compounds Detected by Radiochromatography in urine (Mean ± S.D., n = 3), percent of total peaks ([2]; 0-8 hr, female): 74.0 ± 3.3%; Compounds Detected by Radiochromatography in urine (Mean ± S.D., n = 3), percent of total peaks ([2]; 0-8 hr, male): 76.5 ± 1.9%; Compounds Detected by Radiochromatography in urine (Mean ± S.D., n = 3), percent of total peaks ([2]; 8-24 hr, male): 77.2 ± 1.2%; % of the radioactivity detected in plasma ([3]; 1 hour post-dose): 77.5%; % of the radioactivity detected in plasma ([3]; 4 hours post-dose): 96.4%; % of the radioactivity in plasma ([4]; female rats, 1 hour post-dose): 86.6%; % of the radioactivity in plasma ([4]; male rats, 1 hour post-dose): 88.7%; % of the radioactivity in plasma ([4]; male rats, 4 hours post-dose): 93.6% |
| NCC(c1ccc(O)cc1)C1(O)CCCCC1 (centres unmarked) [Metabolite M14, N,N,O-tridesmethylvenlafaxine] | U, F | – | – | 4.4% and 16.1% and 0.0% (2×) | 5.1 ± 7.0% | – | – |
| CNCC(c1ccc(O)cc1)C1(O)CCCCC1 (centres unmarked) [Metabolite M10, N,O-didesmethylvenlafaxine] | P, U, F | P, U, F | – | 9.8% and 17.7% and 8.6% and 11.2% | – | 34% and 33.6 ± 0.9% | Compounds Detected by Radiochromatography in feces, percent of total peaks, individual rats [8]: 34.5% and 32.6% and 33.6% |
| CNCC(c1ccc(O[C@@H]2O[C@H](C(=O)O)[C@@H](O)[C@H](O)[C@H]2O)cc1)C1(O)CCCCC1 (some centres unmarked) [Metabolite M13, N,O-didesmethylvenlafaxine O-glucuronide] | P, U | P, U | 3.3% and 3.5% and 4.3% and 3.6% | – | – | – | – |
| C[N+](C)([O-])CC(c1ccc(O)cc1)C1(O)CCCCC1 (centres unmarked) [N-oxide DV] | P, U, F | P, U, F^b | – | 7.3% and 15.7% and 5.7% and 0.0% | approximately 7% | 7% | Compounds Detected by Radiochromatography in feces, percent of total peaks, Mean ± S.D. ([7]; listed as N-Oxide): 7.2 ± 6.1%; Compounds Detected by Radiochromatography in feces, percent of total peaks, Mean ± S.D. ([8]; listed as N-Oxide): 7.1 ± 1.3%; Compounds Detected by Radiochromatography in feces, percent of total peaks, individual rats ([8]; listed as N-Oxide): 6.0% and 6.7% and 8.5% |
